Assay results taken from PMC8234864, “Early Effects of the Soluble Amyloid β25-35 Peptide in Rat Cortical Neurons: Modulation of Signal Transduction Mediated by Adenosine and Group I Metabotropic Glutamate Receptors” (International Journal of Molecular Sciences, 2021).
Where no end group is shown, it is not given here.

Key:
Caspase 3 = Caspase 3 activity assay; assay type: cell-based, rat; conditions: 25 µM Aβ25-35 exposure
Method: A commercial kit (Molecular Probes, Barcelona, Spain) was used to determine Caspase 3 activity following the manufacturer’s instructions. Briefly, cortical neurons growth in 24-well plates were exposed to Aβ25-35 or maintained under control conditions. Cells were lysed and lysates centrifuged to clear cell debris. Then, 50 µL of test buffer containing Z-DEVD-Rhodamine 110, DTT, EDTA, PIPES, and CHAPS was added to the supernatants obtained in the proportions indicated by the manufacturer. After 30 min of incubation at room temperature, the […] of each sample was measured on a plate reader (excitation/emission 496/520 nm).

[1] = test system: mGluR1 (GRM1) gene expression; assay: mGluR1 gene expression by real-time PCR; assay type: cell-based, rat; conditions: 25 µM, 24 or 48 h, vs control neurons
Method: (§1) Total RNA was extracted using an ABI 6100 Nucleic Acid PrepStation according to the manufacturer’s protocol (Applied Biosystems Inc., Foster City, CA, USA). Total RNA from cells was isolated and stored at −80 °C. The quality of isolated RNA was estimated by the ratio A260/A280 and was in the range of 1.9–2.1. RNA integrity was evaluated by agarose gel electrophoresis according to MIQE guidelines using the “bleach gel” method. RNA concentrations were determined from the A260. One microgram of total RNA was reverse transcribed using Applied Biosystems High-Capacity cDNA Archive Kit.
(§2) To assess relative gene expression in neurons, quantitative real-time RT-PCR analysis was performed with an Applied Biosystems Prism 7500 Fast Sequence Detection System using TaqMan® universal PCR master mix according to the manufacturer’s specifications. […] Levels of RNA expression were determined using the 7500 Fast System SDS software version 1.3.1 (Applied Biosystems) according to the 2^−ΔΔCt method. […] The results from three independent repeat assays, performed in different plates each using different cDNA’s from the cultures analyzed, were averaged to produce a single mean quantity value for each mRNA.

mGluR2,3 = assay: Extracellular immunostaining of mGluR2,3 in non-permeabilized neurons; assay type: cell-based, rat; conditions: 25 µM, 24 h
Method: The quantitative analysis of the levels of Group I mGluR and mGluR2,3 at the plasma membrane was performed with extracellular targeted polyclonal antibodies (mGluR1, mGluR5 and mGluR2,3, Alomone Labs, Jerusalem, Israel), as previously described with minor modifications. Briefly, after 2 weeks in culture, the culture medium was removed and cells washed with Locke Buffer (LB, pH 7.4). Cells were then fixed with 4% paraformaldehyde for 10 min at room temperature and washed with three 10-min intervals with LB.
Nonspecific staining was suppressed by blocking with 3% normal goat serum in LB for 60 min. […]
To evaluate the degree of fluorescence intensity in cortical neurons, fluorescence was measured to estimate the protein expression in the different experimental conditions analyzed. Images (448.6 µm × 335.08 µm) obtained with a digital camera (Leica DFC350FX R2), attached to a Leica DMI6000B (Leica Microsystems, Wetzlar, Germany) fluorescent microscope, were used for quantification (20x HCX PL FLUOTAR 0.4 dry objective). […] Fluorescence intensity was estimated by averaging mean grey values. […] Data were normalized to the total number of cells in the analyzed fields. The mean fluorescence background, calculated in the unstained regions between neurons, was subtracted from the fluorescence intensity of each data point. […]

A2AR = target: T1, A2AR (Rattus norvegicus, UniProt P30543); assay: A2AR-mediated AC stimulation (CGS 21680); assay type: cell-based; conditions: 25 µM, 24 h; 1 µM CGS 21680
T1 construct: endogenous in cells; host or cells: rat primary cortical neurons (intact)
Method: AC activity was determined as previously reported by Murphy with minor modifications. Briefly, control or treated cells were pre-incubated in serum-free DMEM buffered with 20 mM HEPES, pH 7.4, supplemented with 100 µM Ro 20-1724 and 2 U/mL ADA, for 10 min at 37 °C. AC activity was stimulated using specific ligands for 15 min at 37 °C in a final volume of 250 µL. The reaction was stopped by adding 500 µL 0.1 M HCl in absolute ethanol. Once centrifuged at 12,000× g for 10 min, supernatants were evaporated in speed-vac and resuspended in 150 µL assay buffer (50 mM Tris-HCl, 4 mM EDTA). Fifty microliters of the sample were used to determine cAMP accumulation using protein kinase A as a cAMP binding protein and [^3H]cAMP as radioligand. A cAMP standard curve (0–16 pmol) was prepared in the same buffer. Incubation was stopped by rapid filtration through Whatman GF/B filters.

[2] = test system: A2BR (ADORA2B) gene expression; assay: A2BR gene expression by real-time PCR; assay type: cell-based, rat; conditions: 25 µM, 24 or 48 h
Method: as §1, §2

T1 sequence (P30543 whole entry): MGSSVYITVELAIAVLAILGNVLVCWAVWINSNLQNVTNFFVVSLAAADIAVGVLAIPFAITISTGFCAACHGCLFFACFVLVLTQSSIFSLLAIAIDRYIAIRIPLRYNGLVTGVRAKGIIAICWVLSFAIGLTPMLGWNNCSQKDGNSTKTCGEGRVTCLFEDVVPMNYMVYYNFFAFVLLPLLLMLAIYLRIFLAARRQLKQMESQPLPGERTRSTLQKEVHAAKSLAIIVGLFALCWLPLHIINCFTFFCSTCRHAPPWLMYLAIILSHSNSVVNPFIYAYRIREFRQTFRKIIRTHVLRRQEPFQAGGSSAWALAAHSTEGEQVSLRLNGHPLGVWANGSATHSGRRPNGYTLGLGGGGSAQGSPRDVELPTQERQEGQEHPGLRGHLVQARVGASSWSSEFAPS

GSNKGAIIGLM [Aβ25-35] was tested, and the “caspase 3 activity” value (Caspase 3) was “increase”, the mGluR1 gene expression [1] was “increase” and the “mGluR2,3 density at the membrane surface of cell bodies” value (mGluR2,3) was “decrease”. For the same sequence, the “A2AR-mediated stimulation of AC activity” value (A2AR) was “did not alter” and the A2BR gene expression [2] was “significantly increased”.
